The results in this text go back to US20240247080A1, “GLP1/GIP/NPY2 RECEPTOR TRIPLE AGONISTS” (Boehringer Ingelheim International GmbH, priority 2022, published 2024).

Series [1] can be described thus: Mouse PK after intravenous application. It is filed as in vivo. The conditions noted are these: mean residence time, intravenous 30-60 nmol/kg, male NMRI mice. The procedure, abridged:
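Male NMRI mice (30–40 g) received 30-60 nmol/kg peptide by tail-vein injection, dissolved in 50 mM phosphate buffer (pH 7.4)/3.5% mannitol. Saphenous blood was sampled up to 56 hours post-dose and EDTA plasma analysed by LC-MS. PK parameters came from non-compartmental analysis.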

The nature of series [2]: Solubility in 0.1 M phosphate buffer at pH 7. The class given is physicochemical. On the procedure: Peptides (as TFA-salts) were weighed out in a filter unit (Mini-UniPrep Syringieless Filter 0.45 prn. Whatman PVDF), and 0.1 M phosphate buffer at pH 7 was added to achieve 10 mg/mL final peptide concentration. The peptides were dissolved by shaking the filter units horizontally at 600 rpm for 2 hours at room temperature. Samples were then filtered to remove any insoluble particles. Controls were prepared by weighing out the corresponding peptide solid material and dissolving it in an appropriate vehicle (e.g. ACN:H2O) to a final concentration of 1 mg/mL. Both, the control and sample were analyzed by reversed phase chromatography. The area under the peak of the sample was compared to the control and the solubility was calculated based on that ratio. The pH was measured and recorded for each sample.

Series [3] in a line: Effect on acute food intake in normal NMRI mice. It is filed as in vivo. The conditions noted are these: 30 nmol/kg subcutaneously once, normalized to vehicle group, male NMRI mice. How it is done:
Example 4: Effect on Acute Food Intake in Normal NMRI Mice
Male NMRI mice were obtained from Janvier (Janvier Labs, France) or from Charles River (Charles River Research Models & Services Germany GmbH) at the age of 3 weeks. The animals get a microchip (Datamars, Slim Microchip T-SL) for individual identification after delivery. They were housed with 4 mice per cage under a 12/12 dark-light cycle, light off at 3 p.m. Room temperature was controlled to 21° C. +/−1° C. and humidity 60%+/−20%. Mice had ad libitum access to regular rodent chow (KLIBA Nafag 3040 or Altromin 1324, Brogaarden, Denmark) and tap water.
Latest transfer into the HM2-System of MBRose, Denmark (real-time monitoring system of food- and water intake) of the animals 5 days before study start, to allow acclimatization to experimental conditions. As the animals were uniquely identified with the microchips, each individual animal was identified by its own microchip upon entry and exit from the food channel via antennae. Randomization of the mice for each study group (n=8; age earliest 6 weeks old) was based on food intake (middle of last three days 24 h-Intervall) and bodyweight directly before start of the study. A vehicle treated (50 mM phosphate buffer pH7.4 with 3.5% Mannitol) group was included in each experiment. To have the same nutrition standard for each animal the food access was locked eight hours before dark phase. One hour before night, the animals were once treated subcutaneously with the test peptide. Food intake was reported hourly for a period of 24 h.

Series [4] concerns the target T1, hGIPR (Homo sapiens, UniProt P48546).
T1 construct: expressed in transfected cells; host or cells: CHO cells carrying a CRE-luciferase reporter gene
T1 sequence (P48546 22-466): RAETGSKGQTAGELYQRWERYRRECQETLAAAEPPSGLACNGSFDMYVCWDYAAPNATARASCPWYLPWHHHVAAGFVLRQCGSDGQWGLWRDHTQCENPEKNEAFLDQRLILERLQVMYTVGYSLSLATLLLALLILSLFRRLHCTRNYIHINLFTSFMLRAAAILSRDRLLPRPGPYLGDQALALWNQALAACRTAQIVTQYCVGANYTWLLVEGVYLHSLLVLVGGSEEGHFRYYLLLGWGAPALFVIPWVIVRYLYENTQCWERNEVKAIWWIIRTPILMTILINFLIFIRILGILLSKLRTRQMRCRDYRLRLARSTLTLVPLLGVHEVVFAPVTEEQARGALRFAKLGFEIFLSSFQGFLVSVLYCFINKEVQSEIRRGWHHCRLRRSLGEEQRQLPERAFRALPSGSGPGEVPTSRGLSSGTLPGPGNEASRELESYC
Nature of the series: hGIPR CreLuc reporter gene assay in 0.5% and 100% plasma. The conditions noted are these: CreLuc reporter gene assay. It is filed as cell-based. In outline: (§1)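 HEK cells (GLP-1R, NPY2R) or CHO cells (GIPR) carrying a CRE-luciferase reporter, incubated 4 h at 37 °C with peptides in HBSS/20 mM HEPES pH 7.4 plus 0.5% human plasma, or in 100% plasma. Luminescence read; EC50 from 8-point variable-slope sigmoid fits.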

The target in series [5] is T2, hGLP1R (Homo sapiens, UniProt P43220).
T2 construct: expressed in transfected cells; host or cells: HEK-293 cells carrying a CRE-luciferase reporter gene
T2 sequence (P43220 24-463): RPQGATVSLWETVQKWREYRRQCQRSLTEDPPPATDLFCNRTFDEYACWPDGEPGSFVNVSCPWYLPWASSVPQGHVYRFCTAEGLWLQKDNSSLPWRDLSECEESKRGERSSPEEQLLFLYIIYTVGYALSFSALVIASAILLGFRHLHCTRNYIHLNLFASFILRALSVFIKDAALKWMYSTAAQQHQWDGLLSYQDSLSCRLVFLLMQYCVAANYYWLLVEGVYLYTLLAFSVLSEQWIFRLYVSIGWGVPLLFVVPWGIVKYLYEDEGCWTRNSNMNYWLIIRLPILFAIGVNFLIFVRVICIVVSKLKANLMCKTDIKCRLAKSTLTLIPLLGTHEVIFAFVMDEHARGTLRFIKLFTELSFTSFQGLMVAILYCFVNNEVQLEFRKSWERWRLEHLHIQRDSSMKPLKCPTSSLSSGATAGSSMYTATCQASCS
Nature of the series: hGLP1R CreLuc reporter gene assay in 0.5% and 100% plasma. The class given is cell-based. The conditions noted are these: CreLuc reporter gene assay, 0.5% human plasma; read-out: hGLP1R 0.5% hP. The procedure, abridged:
as §1

Series [6] deals with T3, hNPY2R (Homo sapiens, UniProt P49146).
T3 construct: expressed in transfected cells; host or cells: HEK-293 cells carrying a CRE-luciferase reporter gene
T3 sequence (P49146 1-381): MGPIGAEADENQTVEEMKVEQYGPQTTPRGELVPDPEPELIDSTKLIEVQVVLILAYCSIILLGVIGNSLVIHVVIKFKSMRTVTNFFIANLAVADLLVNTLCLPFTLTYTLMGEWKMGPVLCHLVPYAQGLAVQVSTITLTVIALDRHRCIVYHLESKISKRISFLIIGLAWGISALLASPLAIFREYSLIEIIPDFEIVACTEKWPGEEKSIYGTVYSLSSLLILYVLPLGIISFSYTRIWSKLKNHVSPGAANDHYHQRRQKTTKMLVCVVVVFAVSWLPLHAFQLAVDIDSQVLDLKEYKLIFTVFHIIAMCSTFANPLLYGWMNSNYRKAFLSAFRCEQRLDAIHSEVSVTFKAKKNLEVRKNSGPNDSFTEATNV
Nature of the series: hNPY2R CreLuc reporter gene assay in 0.5% and 100% plasma. It is filed as cell-based. The conditions noted are these: CreLuc reporter gene assay, 100% human plasma; read-out: hNPY2R 100% hP. The procedure, abridged: as §1
In general terms: In a reporter assay the amount or activity of a reporter protein is the signal.

Read-outs that look alike come from different tables or passages of the source. Non-standard residues stand in square brackets, D forms with d. Residues, ends and D or L forms follow the SMILES beside them. Groups on a side chain read outwards from the residue. ξ: configuration not given here. *: point of attachment. C18 diacid = O=C(O)CCCCCCCCCCCCCCCCC(=O)*; NMeY = CN[C@@H](Cc1ccc(O)cc1)C(=O)O; Palmitoyl = CCCCCCCCCCCCCCCC(=O)*; αMeF = C[C@](N)(Cc1ccccc1)C(=O)O; ξIva = CCC(C)(N)C(=O)O; Aib = CC(C)(N)C(=O)O

As for `CC[C@H](C)[C@H](NC(=O)[C@H](CO)NC(=O)[C@H](CCCCNC(=O)CNC(=O)CNC(=O)CNC(=O)CNC(=O)CCCCCCCCCCCCCCCCC(=O)O)NC(=O)[C@H](CC(=O)O)NC(=O)[C@H](CO)NC(=O)[C@@H](NC(=O)[C@](C)(Cc1ccccc1)NC(=O)[C@@H](NC(=O)CNC(=O)[C@H](CCC(=O)O)NC(=O)C(C)(C)NC(=O)[C@H](Cc1ccc(O)cc1)NC)[C@@H](C)O)[C@@H](C)O)C(=O)NC(C)(C)C(=O)N[C@@H](CC(C)C)C(=O)N[C@@H](CCC(=O)O)C(=O)N[C@@H](CCCCN)C(=O)N[C@@H](CCC(N)=O)C(=O)N[C@@H](CCCNC(=N)N)C(=O)N[C@@H](CCC(N)=O)C(=O)NC(C)(CC)C(=O)N[C@@H](CCC(=O)O)C(=O)N[C@@H](Cc1ccccc1)C(=O)N[C@H](C(=O)N[C@@H](CCCNC(=N)N)C(=O)N[C@@H](Cc1c[nH]cn1)C(=O)N[C@@H](CC(C)C)C(=O)N[C@@H](CC(C)C)C(=O)N[C@@H](CC(N)=O)C(=O)N[C@@H](CCCCN)C(=O)NC(C)(C)C(=O)N[C@H](C(=O)N[C@@H](CCCNC(=N)N)C(=O)N[C@@H](CCC(N)=O)C(=O)N[C@@H](CCCNC(=N)N)C(=O)N[C@@H](Cc1ccc(O)cc1)C(N)=O)[C@@H](C)O)C(C)C` (stereo partly drawn) [Ref. 2, NMeY-Aib-E-G-T-aMeF-T-S-D-K(1,3)-S-I-Aib-L-E-K-Q-R-Q-Iva-E-F-V-R-H-L-L-N-K-Aib-T-R-Q-R-Y-NH2.C18DA-G-G-G-G(1,2), reference compound] (H-[NMeY][Aib]EGT[αMeF]TSDK([Gly-Gly-Gly-Gly-C18 diacid])SI[Aib]LEKQRQ[ξIva]EFVRHLLNK[Aib]TRQRY-NH2), the MRT in series [1] (plasma) was 4.3 h. The solubility in series [2] (phosphate buffer) was less than 1000 µg/mL.

`CCCCCCCCCCCCCCCC(=O)NCC(=O)NCC(=O)NCC(=O)NCC(=O)NCCCC[C@H](NC(=O)[C@H](CC(=O)O)NC(=O)[C@H](CO)NC(=O)[C@@H](NC(=O)[C@](C)(Cc1ccccc1)NC(=O)[C@@H](NC(=O)CNC(=O)[C@H](CCC(=O)O)NC(=O)C(C)(C)NC(=O)[C@H](Cc1ccc(O)cc1)NC)[C@@H](C)O)[C@@H](C)O)C(=O)N[C@@H](CO)C(=O)N[C@H](C(=O)NC(C)(C)C(=O)N[C@@H](CC(C)C)C(=O)N[C@@H](CCC(=O)O)C(=O)N[C@@H](CCCCN)C(=O)N[C@@H](CCC(N)=O)C(=O)N[C@@H](CCCNC(=N)N)C(=O)N[C@@H](CCC(N)=O)C(=O)NC(C)(CC)C(=O)N[C@@H](CCC(=O)O)C(=O)N[C@@H](Cc1ccccc1)C(=O)N[C@H](C(=O)N[C@@H](CCCNC(=N)N)C(=O)N[C@@H](Cc1c[nH]cn1)C(=O)N[C@@H](CC(C)C)C(=O)N[C@@H](CC(C)C)C(=O)N[C@@H](CC(N)=O)C(=O)N[C@@H](CCCCN)C(=O)NC(C)(C)C(=O)N[C@H](C(=O)N[C@@H](CCCNC(=N)N)C(=O)N[C@@H](CCC(N)=O)C(=O)N[C@@H](CCCNC(=N)N)C(=O)N[C@@H](Cc1ccc(O)cc1)C(N)=O)[C@@H](C)O)C(C)C)[C@@H](C)CC` (stereo partly drawn) [Ref. 1, NMeY-Aib-E-G-T-aMeF-T-S-D-K(1,3)-S-I-Aib-L-E-K-Q-R-Q-Iva-E-F-V-R-H-L-L-N-K-Aib-T-R-Q-R-Y-NH2.C16A-G-G-G-G(1,2), reference compound] (H-[NMeY][Aib]EGT[αMeF]TSDK([Gly-Gly-Gly-Gly-Palmitoyl])SI[Aib]LEKQRQ[ξIva]EFVRHLLNK[Aib]TRQRY-NH2): the MRT in series [1] (in vivo) is less than 1 h. In addition, the solubility in series [2] is less than 1000 µg/mL.

`CC[C@H](C)[C@H](NC(=O)[C@H](CC(C)C)NC(=O)[C@H](Cc1c[nH]c2ccccc12)NC(=O)[C@H](CCC(N)=O)NC(=O)[C@@H](NC(=O)[C@H](Cc1ccccc1)NC(=O)[C@H](C)NC(=O)C(C)(C)NC(=O)[C@H](CCC(N)=O)NC(=O)[C@H](C)NC(=O)[C@H](CCC(N)=O)NC(=O)[C@H](CCCCN)NC(=O)[C@H](CCC(=O)O)NC(=O)[C@H](CC(C)C)NC(=O)C(C)(C)NC(=O)[C@@H](NC(=O)[C@H](CO)NC(=O)[C@H](Cc1ccc(O)cc1)NC(=O)[C@H](CC(=O)O)NC(=O)[C@H](CO)NC(=O)[C@@H](NC(=O)[C@H](Cc1ccccc1)NC(=O)[C@@H](NC(=O)CNC(=O)[C@H](CCC(=O)O)NC(=O)C(C)(C)NC(=O)[C@@H](N)Cc1ccc(O)cc1)[C@@H](C)O)[C@@H](C)O)[C@@H](C)CC)C(C)C)C(=O)N[C@@H](CCCCNC(=O)[C@@H](N)CCCCNC(=O)CC[C@H](NC(=O)CC[C@H](NC(=O)CC[C@H](NC(=O)CC[C@H](NC(=O)CC[C@H](NC(=O)CC[C@H](NC(=O)CCCCCCCCCCCCCCCCC(=O)O)C(=O)O)C(=O)O)C(=O)O)C(=O)O)C(=O)O)C(=O)O)C(=O)NCC(=O)NCC(=O)N1CCC[C@H]1C(=O)N[C@@H](CO)C(=O)N[C@@H](CCC(=O)O)C(=O)NCC(=O)N[C@@H](C)C(=O)N[C@@H](CO)C(=O)N[C@@H](CC(C)C)C(=O)N[C@@H](CCCNC(=N)N)C(=O)N[C@@H](Cc1c[nH]cn1)C(=O)N[C@@H](Cc1ccc(O)cc1)C(=O)N[C@@H](Cc1ccc(O)cc1)C(=O)N[C@@H](CC(N)=O)C(=O)N[C@@H](Cc1c[nH]c2ccccc12)C(=O)N[C@@H](CC(C)C)C(=O)N[C@H](C(=O)N[C@@H](CCCNC(=N)N)C(=O)N[C@@H](CCC(N)=O)C(=O)N[C@@H](CCCNC(=N)N)C(=O)N[C@@H](Cc1ccc(O)cc1)C(N)=O)[C@@H](C)O` [Compound 265, Y-Aib-E-G-T-F-T-S-D-Y-S-I-Aib-L-E-K-Q-A-Q-Aib-A-F-V-Q-W-L-I-K(1,3)-GGPSEGASLRHYYNWLTRQRY-NH2.C18DA-gGlu-gGlu-gGlu-gGlu-gGlu-gGlu-eLys(1,2)]: in series [3], the “Acute Food Intake 24 h 30 nmol/kg [% CTL]” value turned out to be 50 % CTL. The EC50 turned out to be 0.39 nM in series [4] (0.5% human plasma, read-out: hGIPR 0.5% hP); 0.79 nM in series [4] (100% human plasma, read-out: hGIPR 100% hP); 0.1 nM in series [5]; 23 nM in series [6]. Besides, in series [1] (plasma), the MRT was 8.5 h.

A word on the MRT: it is the average time that molecules of a dose stay in the body. What is called solubility is how much of the substance goes into solution per volume. A high value points to a readily soluble substance.
